How the values were obtained:
Format in all cases: biochemical
[1] = biological target: SIK3 (Homo sapiens, UniProt Q9Y2K2); assay: Enzymatic activity assay SIK3, RapidFire mass spectrometry (phosphorylation of CHK-peptide); details: RapidFire MS, inhibition of SIK3; read-out: SIK3 RF IC50
How it was run: (§1)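 Compounds (12-point, 3-fold, generally 30 μM to 170 pM) were pre-incubated 30 min at ambient temperature with SIK1 (5 nM), SIK2 (0.5 nM) or SIK3 (1.5 nM) in HEPES pH 7.0/magnesium acetate buffer. CHK-peptide (10 μM solution) and ATP (100 μM solution) were then added for 45 min before formic acid quench.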

[2] = biological target: SIK2 (Homo sapiens, UniProt Q9H0K1); assay: Enzymatic activity assay SIK2, RapidFire mass spectrometry (phosphorylation of CHK-peptide); details: RapidFire MS, inhibition of SIK2; read-out: SIK2 RF IC50
How it was run: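 SIK2 (0.5 nM) in pH 7.0 HEPES buffer with 10 mM Mg acetate phosphorylates CHK-peptide (10 μM solution) with 100 μM ATP solution, 45 min ambient, then formic acid quench.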

[3] = biological target: SIK1 (Homo sapiens, UniProt P57059); assay: Enzymatic activity assay SIK1, RapidFire mass spectrometry (phosphorylation of CHK-peptide); details: RapidFire MS, inhibition of SIK1; read-out: SIK1 RF IC50
How it was run: as §1

Chain of SIK2 (Q9H0K1 whole entry): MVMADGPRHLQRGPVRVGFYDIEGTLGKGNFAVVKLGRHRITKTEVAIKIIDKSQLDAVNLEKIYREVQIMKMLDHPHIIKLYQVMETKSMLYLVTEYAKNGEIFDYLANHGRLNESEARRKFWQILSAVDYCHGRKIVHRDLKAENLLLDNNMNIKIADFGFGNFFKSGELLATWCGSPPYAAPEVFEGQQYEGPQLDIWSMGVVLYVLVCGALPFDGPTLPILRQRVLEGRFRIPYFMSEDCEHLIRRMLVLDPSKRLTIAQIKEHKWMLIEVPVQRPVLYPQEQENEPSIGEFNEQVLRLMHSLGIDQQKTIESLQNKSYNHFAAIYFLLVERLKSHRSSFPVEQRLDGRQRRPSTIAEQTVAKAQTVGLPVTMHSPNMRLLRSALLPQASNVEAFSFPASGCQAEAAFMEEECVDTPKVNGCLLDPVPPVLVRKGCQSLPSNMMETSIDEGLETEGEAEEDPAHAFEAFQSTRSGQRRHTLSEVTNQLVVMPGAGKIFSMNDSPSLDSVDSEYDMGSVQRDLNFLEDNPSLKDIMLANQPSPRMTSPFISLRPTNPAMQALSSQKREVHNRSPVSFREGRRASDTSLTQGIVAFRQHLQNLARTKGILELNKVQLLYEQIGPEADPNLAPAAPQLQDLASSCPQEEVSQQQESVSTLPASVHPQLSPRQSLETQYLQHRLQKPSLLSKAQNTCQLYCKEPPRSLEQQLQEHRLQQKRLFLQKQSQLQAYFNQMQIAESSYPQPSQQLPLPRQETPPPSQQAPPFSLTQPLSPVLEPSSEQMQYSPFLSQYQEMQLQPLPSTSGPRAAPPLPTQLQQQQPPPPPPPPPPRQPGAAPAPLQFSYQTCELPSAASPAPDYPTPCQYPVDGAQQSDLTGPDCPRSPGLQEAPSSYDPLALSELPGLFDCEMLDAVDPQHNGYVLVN
Chain of SIK3 (Q9Y2K2 whole entry): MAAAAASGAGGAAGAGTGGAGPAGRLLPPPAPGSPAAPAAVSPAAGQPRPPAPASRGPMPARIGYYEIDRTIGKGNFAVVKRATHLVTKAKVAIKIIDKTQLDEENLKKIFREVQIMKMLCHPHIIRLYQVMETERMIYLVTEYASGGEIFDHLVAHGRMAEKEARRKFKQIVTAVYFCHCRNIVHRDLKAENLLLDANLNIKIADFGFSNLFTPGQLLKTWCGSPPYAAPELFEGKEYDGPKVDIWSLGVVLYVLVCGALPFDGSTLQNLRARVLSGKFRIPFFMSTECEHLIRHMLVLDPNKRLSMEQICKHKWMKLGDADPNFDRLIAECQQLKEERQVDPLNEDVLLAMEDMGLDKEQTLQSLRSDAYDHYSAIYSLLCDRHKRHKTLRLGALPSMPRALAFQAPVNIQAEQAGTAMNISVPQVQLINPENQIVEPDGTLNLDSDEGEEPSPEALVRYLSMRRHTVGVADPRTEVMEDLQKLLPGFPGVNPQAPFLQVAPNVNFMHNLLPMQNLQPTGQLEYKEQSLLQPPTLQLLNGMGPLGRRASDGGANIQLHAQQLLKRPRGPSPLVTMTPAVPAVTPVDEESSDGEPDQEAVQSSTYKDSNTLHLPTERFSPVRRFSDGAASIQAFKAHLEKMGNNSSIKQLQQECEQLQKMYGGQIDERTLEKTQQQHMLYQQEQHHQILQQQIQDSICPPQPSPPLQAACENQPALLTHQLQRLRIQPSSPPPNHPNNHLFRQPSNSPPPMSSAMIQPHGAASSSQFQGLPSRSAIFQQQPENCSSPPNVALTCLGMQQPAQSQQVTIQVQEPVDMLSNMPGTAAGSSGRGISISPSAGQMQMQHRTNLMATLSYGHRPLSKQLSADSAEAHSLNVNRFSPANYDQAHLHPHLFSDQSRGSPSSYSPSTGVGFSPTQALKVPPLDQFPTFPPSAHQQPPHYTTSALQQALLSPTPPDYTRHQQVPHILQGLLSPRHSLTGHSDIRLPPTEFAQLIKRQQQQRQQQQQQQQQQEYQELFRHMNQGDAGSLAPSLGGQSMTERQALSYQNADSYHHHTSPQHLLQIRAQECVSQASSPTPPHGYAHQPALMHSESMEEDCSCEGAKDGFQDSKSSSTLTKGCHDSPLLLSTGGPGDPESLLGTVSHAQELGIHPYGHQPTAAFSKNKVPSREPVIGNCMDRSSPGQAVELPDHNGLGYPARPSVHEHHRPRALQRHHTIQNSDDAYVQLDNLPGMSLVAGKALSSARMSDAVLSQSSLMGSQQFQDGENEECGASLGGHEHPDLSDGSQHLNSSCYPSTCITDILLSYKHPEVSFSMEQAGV
Chain of SIK1 (P57059 whole entry): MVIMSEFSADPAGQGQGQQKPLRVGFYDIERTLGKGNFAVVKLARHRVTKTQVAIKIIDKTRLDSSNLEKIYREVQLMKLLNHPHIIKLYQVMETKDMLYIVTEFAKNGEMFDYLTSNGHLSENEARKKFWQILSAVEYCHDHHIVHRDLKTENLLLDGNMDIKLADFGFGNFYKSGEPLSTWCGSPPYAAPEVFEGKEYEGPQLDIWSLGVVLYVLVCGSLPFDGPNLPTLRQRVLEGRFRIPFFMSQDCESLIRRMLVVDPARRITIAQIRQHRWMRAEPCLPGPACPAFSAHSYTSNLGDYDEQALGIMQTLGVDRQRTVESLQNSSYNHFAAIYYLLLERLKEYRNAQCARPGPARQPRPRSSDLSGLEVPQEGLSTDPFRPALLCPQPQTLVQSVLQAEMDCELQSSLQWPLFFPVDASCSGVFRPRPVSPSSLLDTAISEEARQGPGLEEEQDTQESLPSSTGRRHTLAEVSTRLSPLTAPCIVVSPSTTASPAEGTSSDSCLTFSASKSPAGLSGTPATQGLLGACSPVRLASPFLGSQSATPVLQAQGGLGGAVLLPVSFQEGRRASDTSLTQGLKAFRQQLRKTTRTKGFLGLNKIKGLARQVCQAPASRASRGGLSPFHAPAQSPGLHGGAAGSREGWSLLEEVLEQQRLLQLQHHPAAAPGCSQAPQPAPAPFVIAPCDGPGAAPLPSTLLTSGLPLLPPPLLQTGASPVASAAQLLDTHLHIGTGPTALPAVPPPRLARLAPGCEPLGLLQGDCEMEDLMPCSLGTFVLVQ

Compound	IC50 [1] [µM]	IC50 [2] [µM]	IC50 [3] [µM]
Cc1cc(C#N)nn1-c1nc(-n2cnc3cc(Nc4ccc(F)c(F)c4F)c(F)cc32)ccc1C(C)O (stereo not drawn) [Example 378, 1-[6-[6-fluoro-5-(2,3,4-trifluoroanilino)benzimidazol-1-yl]-3-(1-hydroxyethyl)-2-pyridyl]-5-methyl-pyrazole-3-carbonitrile]	0.0217	0.0325	0.079
Cc1cc(C#N)nn1-c1nc(-n2cnc3cc(Nc4ccc(OCCN5CCS(=O)(=O)CC5)nn4)ccc32)ccc1C(C)O (stereo not drawn) [Example 206, 1-[6-[5-[[6-[2-(1,1-Diketo-1,4-thiazinan-4-yl)ethoxy]pyridazin-3-yl]amino]benzimidazol-1-yl]-3-(1-hydroxyethyl)-2-pyridyl]-5-methyl-pyrazole-3-carbonitrile]	0.0053	0.0045	0.072
Cc1cc(C(=O)N(C)C)c(Nc2ccc3c(c2)ncn3-c2ccc(C(C)O)c(-n3nc(C#N)cc3C)n2)nn1 (stereo not drawn) [Example 219, 3-[[1-[6-(3-Cyano-5-methyl-pyrazol-1-yl)-5-(1-hydroxyethyl)-2-pyridyl]benzimidazol-5-yl]amino]-N,N,6-trimethyl-pyridazine-4-carboxamide]	0.0042	0.0068	2.21
Cc1nnc(Nc2cc3c(cc2F)ncn3-c2ccc(C(C)O)c(-n3nc(C#N)cc3C)n2)o1 (stereo not drawn) [Example 376, 1-[6-[5-fluoro-6-[(5-methyl-1,3,4-oxadiazol-2-yl)amino]benzimidazol-1-yl]-3-(1-hydroxyethyl)-2-pyridyl]-5-methyl-pyrazole-3-carbonitrile]	0.042	0.0096	0.014
Cc1cc(C(=O)N(C)C)c(Nc2ccc3c(c2)ncn3-c2ccc(CO)c(-n3nc(C(F)F)cc3C(F)F)n2)nn1 [Example 348, 3-[[1-[6-[3,5-bis(difluoromethyl)pyrazol-1-yl]-5-(hydroxymethyl)-2-pyridyl]benzimidazol-5-yl]amino]-N,N,6-trimethyl-pyridazine-4-carboxamide]	0.0371	0.0322	14.5
Cc1cc(C#N)nn1-c1nc(-n2cnc3cc(Nc4nncc5c4OCCN5C)ccc32)ccc1C(C)O (stereo not drawn) [Example 310, 1-[3-(1-hydroxyethyl)-6-[5-[(4-methyl-2,3-dihydropyridazino[4,5-b][1,4]oxazin-8-yl)amino]benzimidazol-1-yl]-2-pyridyl]-5-methyl-pyrazole-3-carbonitrile]	0.0005	0.0011	0.093
Cc1nn(CC(F)(F)F)cc1-c1nc(-n2cnc3cc(NC(=O)CN4CCCCC4)ccc32)ccc1C(C)O (stereo not drawn) [Example 358, N-[1-[5-(1-hydroxyethyl)-6-[3-methyl-1-(2,2,2-trifluoroethyl)pyrazol-4-yl]-2-pyridyl]benzimidazol-5-yl]-2-(1-piperidyl)acetamide]	0.0084	0.0025	0.051
Cc1ccc(Nc2ccc3c(c2)ncn3-c2ccc(C(C)O)c(-c3cc(OC(F)F)ncc3C)n2)nn1 (stereo not drawn) [Example 167, 1-[2-[2-(Difluoromethoxy)-5-methyl-4-pyridyl]-6-[5-[(6-methylpyridazin-3-yl)amino]benzimidazol-1-yl]-3-pyridyl]ethanol]	0.0012	0.0009	0.04
Cc1cc(C(F)F)nn1-c1nc(-n2cnc3cc(F)c(Nc4ccc(F)c(F)c4F)cc32)ccc1C(C)O (stereo not drawn) [Example 364, 1-[2-[3-(difluoromethyl)-5-methyl-pyrazol-1-yl]-6-[5-fluoro-6-(2,3,4-trifluoroanilino)benzimidazol-1-yl]-3-pyridyl]ethanol]	0.0117	0.0029	0.008
Cc1nnc(Nc2cc3ncn(-c4ccc(C(C)O)c(-n5nc(C#N)cc5C)n4)c3cc2F)o1 (stereo not drawn) [Example 377, 1-[6-[6-fluoro-5-[(5-methyl-1,3,4-oxadiazol-2-yl)amino]benzimidazol-1-yl]-3-(1-hydroxyethyl)-2-pyridyl]-5-methyl-pyrazole-3-carbonitrile]	0.0432	0.0315	0.047
Cc1ccc(Nc2ccc3ncn(-c4ccc(C(C)O)c(-n5cc(C)c(C#N)n5)n4)c3c2)nn1 (stereo not drawn) [Example 169, 1-[3-(1-Hydroxyethyl)-6-[6-[(6-methylpyridazin-3-yl)amino]benzimidazol-1-yl]-2-pyridyl]-4-methyl-pyrazole-3-carbonitrile; formic acid]	0.0852	0.135	0.613
Cc1ccc(Nc2cc3ncn(-c4ccc([C@H](C)O)c(-n5nc(OC(F)F)cc5C)n4)c3cc2F)nn1 [Example 374, (1S)-1-[2-[3-(difluoromethoxy)-5-methyl-pyrazol-1-yl]-6-[6-fluoro-5-[(6-methylpyridazin-3-yl)amino]benzimidazol-1-yl]-3-pyridyl]ethanol]	0.0004	0.0003	0.088
Cc1ccc(Nc2ccc3c(c2)ncn3-c2ccc([C@H](C)O)c(-c3cn(CC(F)(F)F)nc3C)n2)nn1 [Example 252, (1S)-1-[6-[5-[(6-Methylpyridazin-3-yl)amino]benzimidazol-1-yl]-2-[3-methyl-1-(2,2,2-trifluoroethyl)pyrazol-4-yl]-3-pyridyl]ethanol]	0.0804	0.0468	5.62
Cc1cc(C#N)nn1-c1nc(-n2cnc3cc(OC4CCN(C5COC5)CC4)ccc32)ccc1C(C)O (stereo not drawn) [Example 113, 1-[3-(1-Hydroxyethyl)-6-[5-[[1-(oxetan-3-yl)-4-piperidyl]oxy]benzimidazol-1-yl]-2-pyridyl]-5-methyl-pyrazole-3-carbonitrile]	0.0341	0.076	0.319
Cc1ccc(Nc2cc3ncn(-c4ccc(C(C)O)c(-n5nc(Cl)cc5C)n4)c3cc2F)nn1 (stereo not drawn) [Example 355, 1-[2-(3-chloro-5-methyl-pyrazol-1-yl)-6-[6-fluoro-5-[(6-methylpyridazin-3-yl)amino]benzimidazol-1-yl]-3-pyridyl]ethanol]	0.0036	0.0053	1.05
Cc1ccc(Nc2ccc3c(c2)ncn3-c2ccc(C(C)O)c(-c3cc(F)ncc3C)n2)nn1 (stereo not drawn) [Example 168, 1-[2-(2-Fluoro-5-methyl-4-pyridyl)-6-[5-[(6-methylpyridazin-3-yl)amino]benzimidazol-1-yl]-3-pyridyl]ethanol]	0.0086	0.0399	1.76
COc1ccc(Nc2ccc3c(c2)ncn3-c2ccc(C(C)O)c(-n3nc(C#N)cc3C)n2)nn1 (stereo not drawn) [Example 88, 1-[3-(1-Hydroxyethyl)-6-[5-[(6-methoxypyridazin-3-yl)amino]benzimidazol-1-yl]-2-pyridyl]-5-methyl-pyrazole-3-carbonitrile]	0.0008	0.0022	0.062
Cc1cc(C#N)nn1-c1nc(-n2cnc3cc(Nc4ccon4)ccc32)ccc1C(C)O (stereo not drawn) [Example 123, 1-[3-(1-Hydroxyethyl)-6-[5-(isoxazol-3-ylamino)benzimidazol-1-yl]-2-pyridyl]-5-methyl-pyrazole-3-carbonitrile]	0.0059	0.0099	0.013
Cc1ccc(Nc2ccc3c(c2)ncn3-c2ccc(C(C)O)c(-n3nc(C#N)cc3C(F)F)n2)nn1 (stereo not drawn) [Example 306, 5-(difluoromethyl)-1-[3-(1-hydroxyethyl)-6-[5-[(6-methylpyridazin-3-yl)amino]benzimidazol-1-yl]-2-pyridyl]pyrazole-3-carbonitrile]	0.0007	0.0016	0.208

Source: patent US20240383875A1, “Benzimidazole Pyridine Derivatives” (Hoffmann-La Roche Inc., priority 2022, published 2024)
